According to US10251865B2, “Method of activating regulatory T cells with alpha-2B adrenergic receptor agonists” (Allergan, Inc., priority 2010, dated 2019):

How the values were obtained:
[1] = tested on: EIU rats; assay: Endotoxin-induced uveitis (EIU) in rats; type: in vivo, rat
Experimental: Female Lewis rats (180-200 grams) were purchased from Charles River Laboratory. Rats were footpad-injected (hind left side) with either 100 μl of 1 mg/ml LPS (Sigma) solution (in sterile pyrogen-free saline) or 150 μl of sterile pyrogen-free saline. Animals were sacrificed at 24 hours following LPS injection. Aqueous humor was collected and analyzed to determine inflammatory cell counts, levels of cytokines and chemokine concentration as well as total protein concentrations. Blood leukocyte differentiation and histopathology were also determined if required.

[2] = tested on: EAAU rats; assay: Experimental autoimmune anterior uveitis (EAAU) in rats; type: in vivo, rat
Experimental: Male Lewis rats (180-200 g) were immunized by a single left hind-footpad injection with 150, μg (in 100 μL) of purified MAA complex from bovine eye. MAA proteins were suspended in phosphate-buffered saline (PBS, pH7.2) and emulsified (1:1 v/v) in complete Freund's adjuvant (CFA, VWR Scientific) containing 1 μg/100 μl of Pertussis Toxin (PTx) emulsion mixture. Control animals were injected with PBS emulsified with CFA and PTx.
Assessment of intraocular inflammation was conducted starting day 7 after immunization, Animals were examined every other day between day 7 and 19 post-immunization for clinical signs and symptoms of uveitis using slit lamp microscopy. Aqueous humor was collected to evaluate the number of inflammatory cells and protein levels. Cell counts were done with 10 ul with a hemocytometer under the light microscope. Protein concentration was measured with a Protein assay solution from Bio-Rad, using BSA as the protein standard. Pro-inflammatory cytokine and chemokine levels were measured on Luminex (Biosource-Invitrogen, Carlsbad, Calif.). Blood, spleen, and eyes were harvested on days 11, 14, and 19 to determine blood leukocyte differentiation, splenic T cell activation status via Flow cytometry, as well as histopathology.

[3] = tested on: CD4+/CD25+ Treg cells; assay: Treg cell frequency in lymphatic organs of SNL rats (flow cytometry); type: in vivo; settings: SNL Rat Model of Allodynic Neuropathic Pain, FIG. 2
Experimental: The SNL (or Chung) Model in the rat is an accepted standard animal model of neuropathic pain and is thought to mimic the human causalgia condition with respect to symptoms (guarding behavior, mechanical allodynia) and alleviation by pharmacological agents. […] The SNL Model is performed by tightly ligating the L-5 and L-6 spinal nerves, which produces tactile allodynia or sensitivity to light touch as described (Kim and Chung, 1992). Male sprague-dawley rats (100-120 grams; Charles River, Wilmington, Mass.) were anesthetized through inhalation of an isoflurane/oxygen mix. The surgical site was shaved and prepared with betadine. An incision was made from the thoracic vertebra XIII toward down the sacrum. The muscle was separated from the spinal vertebra (left side) at the L4-S2 levels. […]
To determine surface expression of CD4 (Helper T cells), CD8 (killer T cells), CD25 (activated helper T cells and regulatory T cells), CD45 (macrophage and microglial cells) and F4/80 (macrophage and microglial cells) 5×10^5 cells/100 μL FACS buffer (PBS, 0.02% sodium azide [Sigma-Aldrich] and 2% bovine serum albumin) were incubated with appropriate antibodies from BD biosciences, Mountain View, Calif. […] Expression was analyzed (FACSCalibur with CellQuest software; BD Biosciences, Mountain View, Calif.).

CCC1=CC(Cc2c[nH]cn2)CCC1 (stereo not shown) [Compound B]
protein exudation in the aqueous humor ([1]; 1 mg/kg/day by osmotic minipump, vs untreated or vehicle-treated (saline) controls, FIG. 9): significantly inhibited | decrease on blood lymphocyte populations as a result of LPS stimulation ([1]; FIG. 10): significantly normalized | increase in blood neutrophils as a result of LPS stimulation ([1]; FIG. 10): significantly normalized | anterior inflammation ([2]; 1 mg/kg/day from days 1-18 or days 7-18 following EAAU induction (3 days oral TID then osmotic minipump)): effective in partially abrogating | CD4+ T cell population in the spleen ([2]; EAAU rats): normalized | lymphocyte populations in the blood ([2]; EAAU rats): normalized | neutrophil cell counts in the blood ([2]; EAAU rats): decreased | clinical scores of anterior uveitis ([2]; EAAU rats, FIG. 8): decreased | inflammatory cell numbers in the aqueous humor ([2]; EAAU rats, FIG. 8): decreased | frequency of spleen CD4+ T cells that are CD4+/CD25+ Treg cells [3]: Sustained increase
